# Measured values from ChEMBL document CHEMBL6096706, “Discovery of WDR5-MLL1 and HDAC Dual-Target Inhibitors for the Treatment of Acute Myeloid Leukemia” (J Med Chem, 2025).
# Legend:
# MV4-11 [1] = assay: Antiproliferative activity against human MV4-11 cells assessed as growth inhibition at 1 uM measured after 72 hrs in presence of 0.1 uM of vorinostat by CellTiterGlo assay; format: functional; details: read-out: GI
# MV4-11 [2] = assay: Induction of apoptosis in human MV4-11 cells assessed as viable cells at 600 nM incubated for 72 hrs in presence of vorinostat by Annexin V/PI staining based flow cytometry analysis (reference value: 96.68%); format: functional; details: read-out: Activity
# MV4-11 [3] = assay: Antiproliferative activity against human MV4-11 cells assessed as growth inhibition at 0.5 uM measured after 72 hrs in presence of 0.05 uM of vorinostat by CellTiterGlo assay; format: functional; details: read-out: GI
# MV4-11 [4] = assay: Antiproliferative activity against human MV4-11 cells assessed as growth inhibition at 0.5 uM measured after 72 hrs in presence of 0.1 uM of vorinostat by CellTiterGlo assay; format: functional; details: read-out: GI
# MV4-11 [5] = assay: Antiproliferative activity against human MV4-11 cells assessed as growth inhibition at 0.1 uM measured after 72 hrs by CellTiterGlo assay; format: functional; details: read-out: GI
# MV4-11 [6] = assay: Antiproliferative activity against human MV4-11 cells assessed as growth inhibition at 1 uM measured after 72 hrs in presence of 0.4 uM of vorinostat by CellTiterGlo assay; format: functional; details: read-out: GI
# MV4-11 [7] = assay: Induction of apoptosis in human MV4-11 cells assessed as necrotic cells at 200 nM incubated for 72 hrs in presence of vorinostat by Annexin V/PI staining based flow cytometry analysis (reference value: 2.61%); format: functional
# MV4-11 [8] = assay: Antiproliferative activity against human MV4-11 cells assessed as growth inhibition at 0.4 uM measured after 72 hrs by CellTiterGlo assay; format: functional; details: read-out: GI
# MV4-11 [9] = assay: Antiproliferative activity against human MV4-11 cells assessed as growth inhibition at 0.1 uM measured after 72 hrs in presence of 1 uM of vorinostat by CellTiterGlo assay; format: functional; details: read-out: GI
# MV4-11 [10] = assay: Antiproliferative activity against human MV4-11 cells assessed as growth inhibition at 0.05 uM measured after 72 hrs in presence of 0.4 uM of vorinostat by CellTiterGlo assay; format: functional; details: read-out: GI
# MV4-11 [11] = assay: Induction of apoptosis in human MV4-11 cells assessed as early apoptotic cells at 200 nM incubated for 72 hrs by Annexin V/PI staining based flow cytometry analysis (reference value: 0.76%); format: functional
# MV4-11 [12] = assay: Antiproliferative activity against human MV4-11 cells assessed as growth inhibition at 0.05 uM measured after 72 hrs in presence of 0.5 uM of vorinostat by CellTiterGlo assay; format: functional; details: read-out: GI
# MV4-11 [13] = assay: Induction of apoptosis in human MV4-11 cells assessed as early apoptotic cells at 200 nM incubated for 72 hrs in presence of vorinostat by Annexin V/PI staining based flow cytometry analysis (reference value: 0.76 %); format: functional
# MV4-11 [14] = assay: Induction of apoptosis in human MV4-11 cells assessed as viable cells at 400 nM incubated for 72 hrs in presence of vorinostat by Annexin V/PI staining based flow cytometry analysis (reference value: 96.68%); format: functional; details: read-out: Activity
# MV4-11 [15] = assay: Antiproliferative activity against human MV4-11 cells assessed as growth inhibition at 0.1 uM measured after 72 hrs in presence of 0.05 uM of vorinostat by CellTiterGlo assay; format: functional; details: read-out: GI
# MV4-11 [16] = assay: Antiproliferative activity against human MV4-11 cells assessed as growth inhibition at 0.5 uM measured after 72 hrs in presence of 0.4 uM of vorinostat by CellTiterGlo assay; format: functional; details: read-out: GI
# MV4-11 [17] = assay: Antiproliferative activity against human MV4-11 cells assessed as growth inhibition at 2 uM measured after 72 hrs in presence of 0.4 uM of vorinostat by CellTiterGlo assay; format: functional; details: read-out: GI
# MV4-11 [18] = assay: Antiproliferative activity against human MV4-11 cells assessed as growth inhibition at 0.5 uM measured after 72 hrs in presence of 1 uM of vorinostat by CellTiterGlo assay; format: functional; details: read-out: GI
# MV4-11 [19] = assay: Antiproliferative activity against human MV4-11 cells assessed as growth inhibition at 1 uM measured after 72 hrs in presence of 1 uM of vorinostat by CellTiterGlo assay; format: functional; details: read-out: GI
# Histone deacetylase 1 = Histone deacetylase 1 (Homo sapiens, UniProt Q13547); assay: Inhibition of HDAC1 (unknown origin) by fluorescence based assay
# MV4-11 [20] = assay: Antitumor activity against human MV4-11 cells xenografted in mouse assessed as tumor growth inhibition at 20 mg/kg, ip administered daily for 17 days; format: functional; details: MV4-11, 408 h, time 17 day, read-out: TGI
# [21] = Toxicity in mouse implanted in human MV4-11 cells assessed as liver damage at 10 to 30 mg/kg, ip administered daily for 17 days by H and E staining based analysis; format: organism-based; details: in vivo, 408 h, dose 10-30 mg/kg, time 17 day
# Histone deacetylase 2 = Histone deacetylase 2 (Homo sapiens, UniProt Q92769); assay: Inhibition of HDAC2 (unknown origin) by fluorescence based assay
# [22] = Toxicity in mouse implanted in human MV4-11 cells assessed as spleen damage at 10 to 30 mg/kg, ip administered daily for 17 days by H and E staining based analysis; format: organism-based; details: in vivo, 408 h, dose 10-30 mg/kg, time 17 day
# MV4-11 [23] = assay: cells; format: functional, cell-based; details: Homo sapiens, MV4-11, 72 h
# Description: Antiproliferative activity against human MV4-11 cells assessed as inhibition of cell growth measured after 72 hrs by CellTiterGlo assay
# MV4-11 [24] = assay: Induction of apoptosis in human MV4-11 cells assessed as late apoptotic cells at 50 nmol/L incubated for 72 hrs by Annexin V/PI staining based flow cytometry analysis (reference value: 5.14%); format: functional
# MV4-11 [25] = assay: Induction of apoptosis in human MV4-11 cells assessed as viable cells at 50 nmol/L incubated for 72 hrs by Annexin V/PI staining based flow cytometry analysis (reference value: 90.23%); format: functional; details: read-out: Activity
# MV4-11 [26] = assay: Induction of apoptosis in human MV4-11 cells assessed as viable cells at 100 nmol/L incubated for 72 hrs by Annexin V/PI staining based flow cytometry analysis (reference value: 90.23%); format: functional; details: read-out: Activity
# MV4-11 [27] = assay: Antitumor activity against human MV4-11 cells xenografted in mouse assessed as tumor growth inhibition at 30 mg/kg, ip administered daily for 17 days; format: functional; details: MV4-11, 408 h, time 17 day, read-out: TGI
# [28] = Toxicity in mouse implanted in human MV4-11 cells assessed as heart damage at 10 to 30 mg/kg, ip administered daily for 17 days by H and E staining based analysis; format: organism-based; details: in vivo, 408 h, dose 10-30 mg/kg, time 17 day
# Histone deacetylase 3 = Histone deacetylase 3 (Homo sapiens, UniProt O15379); assay: Inhibition of HDAC3 (unknown origin) by fluorescence based assay
# MV4-11 [29] = assay: Induction of apoptosis in human MV4-11 cells assessed as necrotic cells at 100 nmol/L incubated for 72 hrs by Annexin V/PI staining based flow cytometry analysis (reference value: 0.46%); format: functional
# Sequence of Histone deacetylase 3 (O15379 whole entry): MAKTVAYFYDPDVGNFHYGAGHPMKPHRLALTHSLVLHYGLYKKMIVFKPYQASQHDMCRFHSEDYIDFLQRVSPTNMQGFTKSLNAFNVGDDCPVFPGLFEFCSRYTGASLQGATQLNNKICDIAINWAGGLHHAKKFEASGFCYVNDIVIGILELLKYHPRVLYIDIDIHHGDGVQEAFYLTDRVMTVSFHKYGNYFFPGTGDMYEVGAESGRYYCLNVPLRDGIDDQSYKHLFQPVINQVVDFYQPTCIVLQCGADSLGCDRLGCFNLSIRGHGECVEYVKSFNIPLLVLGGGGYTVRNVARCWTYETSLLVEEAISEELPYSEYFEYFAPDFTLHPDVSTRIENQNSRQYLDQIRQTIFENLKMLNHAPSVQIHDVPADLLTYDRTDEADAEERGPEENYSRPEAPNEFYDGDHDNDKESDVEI
# Sequence of Histone deacetylase 1 (Q13547 whole entry): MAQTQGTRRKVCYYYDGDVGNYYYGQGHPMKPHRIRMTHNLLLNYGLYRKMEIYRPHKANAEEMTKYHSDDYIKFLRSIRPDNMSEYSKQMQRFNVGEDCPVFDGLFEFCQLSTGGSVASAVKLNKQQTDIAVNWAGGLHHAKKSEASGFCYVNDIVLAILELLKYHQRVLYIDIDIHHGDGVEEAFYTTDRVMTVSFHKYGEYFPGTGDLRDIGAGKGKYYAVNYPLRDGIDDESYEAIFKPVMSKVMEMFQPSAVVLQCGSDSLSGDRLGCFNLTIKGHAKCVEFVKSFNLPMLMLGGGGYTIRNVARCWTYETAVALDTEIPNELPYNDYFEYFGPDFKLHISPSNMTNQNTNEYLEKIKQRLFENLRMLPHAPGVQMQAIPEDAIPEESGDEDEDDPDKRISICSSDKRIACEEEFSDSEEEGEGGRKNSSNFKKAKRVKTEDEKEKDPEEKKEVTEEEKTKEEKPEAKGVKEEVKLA
# Sequence of Histone deacetylase 2 (Q92769 whole entry): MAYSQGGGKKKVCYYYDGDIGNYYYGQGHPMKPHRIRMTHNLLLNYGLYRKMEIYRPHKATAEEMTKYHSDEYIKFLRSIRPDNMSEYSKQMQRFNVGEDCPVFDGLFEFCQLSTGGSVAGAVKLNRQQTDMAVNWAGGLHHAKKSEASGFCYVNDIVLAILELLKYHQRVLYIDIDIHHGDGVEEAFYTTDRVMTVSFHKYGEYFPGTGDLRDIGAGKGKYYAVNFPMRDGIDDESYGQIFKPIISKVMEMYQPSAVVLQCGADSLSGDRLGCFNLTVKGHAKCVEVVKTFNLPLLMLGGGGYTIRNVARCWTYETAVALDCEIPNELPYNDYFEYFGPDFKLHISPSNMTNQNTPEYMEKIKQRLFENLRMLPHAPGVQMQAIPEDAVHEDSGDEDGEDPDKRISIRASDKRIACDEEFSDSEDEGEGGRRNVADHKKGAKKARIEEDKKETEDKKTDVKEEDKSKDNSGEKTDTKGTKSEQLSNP
compound,measurement,setting,value
Cc1c(F)c(N)cc(C(=O)Nc2cc(-c3ccc(C(=O)N4CCOCC4)cc3)ccc2N2CCN(C)CC2)c1Cl,inhibition of growth at 1 µM,MV4-11 [1],57.4%
same,viability at 0.6 µM,MV4-11 [2],9.67%
same,inhibition of growth at 0.5 µM,MV4-11 [3],50.1%
same,inhibition of growth at 0.5 µM,MV4-11 [4],51.7%
same,inhibition of growth at 0.1 µM,MV4-11 [5],19.4%
same,inhibition of growth at 1 µM,MV4-11 [6],68.7%
same,Activity,MV4-11 [7],1.48%
same,inhibition of growth at 0.4 µM,MV4-11 [8],25.5%
same,inhibition of growth at 0.1 µM,MV4-11 [9],88.1%
same,inhibition of growth at 0.05 µM,MV4-11 [10],45.1%
same,Activity,MV4-11 [11],7.03%
same,inhibition of growth at 0.05 µM,MV4-11 [12],73.2%
same,Activity,MV4-11 [13],33.87%
same,viability at 0.4 µM,MV4-11 [14],26.1%
same,inhibition of growth at 0.1 µM,MV4-11 [15],34.4%
same,inhibition of growth at 0.5 µM,MV4-11 [16],65.2%
same,inhibition of growth at 2 µM,MV4-11 [17],89.4%
same,inhibition of growth at 0.5 µM,MV4-11 [18],91.1%
same,inhibition of growth at 1 µM,MV4-11 [19],94.9%
Cc1c(F)c(N)cc(C(=O)Nc2cc(-c3ccc(C(=O)NCc4ccc(/C=C/C(=O)NO)cc4)cc3)ccc2N2CCN(C)CC2)c1Cl,IC50,Histone deacetylase 1,400 nM
same,inhibition in vivo at 20 mg/kg,MV4-11 [20],69%
same,Activity,[21],Non-toxic
same,IC50,Histone deacetylase 2,696 nM
same,Activity,[22],Non-toxic
same,IC50,MV4-11 [23],65 nM
same,Activity,MV4-11 [24],10.86%
same,viability at 0.05 µM,MV4-11 [25],75.7%
same,viability at 0.1 µM,MV4-11 [26],71.5%
same,inhibition in vivo at 30 mg/kg,MV4-11 [27],87.1%
same,Activity,[28],Non-toxic
same,IC50,Histone deacetylase 3,296 nM
same,Activity,MV4-11 [29],1.84%
